According to PMC6631119, “Nasal Administration and Plasma Pharmacokinetics of Parathyroid Hormone Peptide PTH 1-34 for the Treatment of Osteoporosis” (Pharmaceutics, 2019):
Where two headings read alike, the source gives them in different places.

How the values were obtained:
[1] = post-menopausal women with osteoporosis, 20 μg PTH 1-34 subcutaneous dose, reported by the manufacturers of the commercial formulation; cited from earlier work
[2] = Ovine plasma pharmacokinetics of PTH 1-34 (four-way randomised cross-over, ELISA); assay type: in vivo; conditions: sheep; for half-life: read-out: t1/2 (mean); for bioavailability: relative to intravenous injection, read-out: Fab
Protocol: Research was conducted in accordance with the requirements of the Animals (Scientific Procedures) Act 1986 (ASPA) under Procedural Project Licence (PPL) number 40/3552 (Protocol 19b/1), between 26 April 2016 and 24 May 2016, at the University of Nottingham, Nottingham, UK (Procedural Establishment Licence (PEL) number PCD 40/2406). The overarching protocol (as detailed in the PPL) was subject to full review by the Animal Welfare and Ethical Review Board (AWERB), and the study-specific protocol received a more localised review by the Named Animal Care and Welfare Officer (NACWO) and Named Veterinary Surgeon (NVS). This research governance is compliant with recommended ethical review processes. In view of the clinical data obtained in the present study, the pharmacokinetics of the Solutol® HS15-based formulation of PTH 1-34 were further investigated in sheep. The sheep study replicated the clinical trial in that it tested the nasal solution formulation of PTH 1-34 as well as a subcutaneous injection, but also evaluated pharmacokinetics of PTH 1-34 following intravenous injection and an intranasal PTH1-34 dry powder formulation.
The study was conducted according to a four-way randomised cross-over study in four (Mule crossbred) female sheep (obtained from a reputable commercial supplier). The sheep were group housed in a heat and ventilation air conditioned (HVAC) facility for the duration of the study, and were uniquely identified by a combination of ear tag and electronic transponder. On arrival, the animals were also randomly assigned a unique identifier by the facilities Research Animal Facility Management system (LabTracks, Locus Technology Inc., Manchester, MD, USA) and an abbreviated study number (1, 2, 3 and 4). To aid identification during the study, the fleece of each animal was marked with the abbreviated study number by spraying with a commercial stockmarker (dye). The animals were acclimatised for 17 days prior to initiation of treatments. The animals were subject to a health inspection by the NVS prior to and after use in the study, and were monitored during the study by the PPL holder and facility personnel supported by the NACWO, NVS and University of Nottingham personnel. Animals were weighed weekly during the study (Supplementary Materials: Section S3).
Administration of the PTH 1-34 was either as an intranasal liquid, intranasal dry powder, subcutaneous injection or intravenous injection. The treatments were randomised according to a Latin Square design using an online randomisation programme (Experimental Design Generator and Randomiser (Edgar) accessed from: http://www.edgarweb.org.uk/) with a minimum of a two day washout period between study legs. Immediately prior to dosing, the four sheep were sedated by an intravenous injection of ketamine hydrochloride (100 mg/mL solution administered at 2.25 mg/kg). This provided approximately 3 min sedation, during which period the sheep were dosed.
The formulations were prepared at Critical Pharmaceuticals’ Laboratories and transported, refrigerated, to the study facility. The intranasal liquid was administered via the right nostril using a LMA™ MAD110 Nasal™ Intranasal mucosal atomization device (MAD110) (Wolfe-Tory Medical, Inc., Salt Lake City, UT, USA) customised for use in sheep (to allow circumvention of the nostril and delivery of the dose to the respiratory mucosa of the nasal cavity). The intranasal powder formulation was also administered via the right nostril using a 5 mm oral/nasal tracheal tube Portex® Blueline 100/111/050, (Smiths Medical, Ashford, UK) and one-way bellows. The amount of powder administered to each animal, and thus the nominal dose of PTH 1-34, was determined by weighing the devices before and after the nasal administrations. The subcutaneous and intravenous bolus injections of PTH 1-34 were administered into the flank and a jugular vein, respectively. […]

[3] = cited from earlier work
Description: Nasal delivery of large peptides such as parathyroid 1-34 (PTH 1-34) can benefit from a permeation enhancer to promote absorption across the nasal mucosa into the bloodstream. […] We report here the plasma pharmacokinetics of PTH 1-34 in healthy human volunteers receiving the liquid nasal spray formulation containing Solutol® HS15 ... || Our previously published preclinical data in rats for a liquid nasal spray formation were encouraging, showing that the nasal systemic absorption of PTH 1-34 was increased considerably when administered in a formulation containing Solutol® HS15. […] This was not consistent with the previous data from our small animal preclinical studies. In the preceding preclinical conscious rat model, we reported the pharmacokinetic performance of an […] PTH 1-34 subcutaneous formulation, an intranasal liquid formulation with no enhancer and an intranasal solution containing Solutol® HS15. PTH 1-34 doses of 80 μg/kg by subcutaneous injection and 100 μg/kg intranasally were given to rats. T ...

[4] = female, Mule crossbred, 20 ug, four-way crossover, intravenous bolus (jugular vein), solution without Solutol HS15, 20 μg, plasma ELISA, mean ± SE, n = 4
[5] = female, Mule crossbred, inhaled or intranasal, 200 ug, four-way crossover, intranasal liquid with 7.5% w/v Solutol HS15, 200 μg, single nostril, plasma ELISA, mean ± SE, n = 4
[6] = female, Mule crossbred, inhaled or intranasal, 200 ug, four-way crossover, intranasal liquid with 7.5% w/v Solutol HS15, 200 μg, single nostril, plasma ELISA, mean ± SE, n = 4, not dose-corrected
[7] = female, Mule crossbred, inhaled or intranasal, four-way crossover, intranasal dry powder (1% PTH 1-34, 39% gellan gum, 40% Solutol HS15, 20% trehalose), nominal 200 μg (estimated 130 ± 15 μg), plasma ELISA, mean ± SE, n = 4
[8] = female, Mule crossbred, sc, 20 ug, four-way crossover, subcutaneous injection into flank, solution without Solutol HS15, 20 μg, plasma ELISA, mean ± SE, n = 3
[9] = four-way crossover, intranasal dry powder with Solutol HS15 and gellan gum, nominal 200 μg (estimated 130 ± 15 μg), plasma ELISA, n = 4
[10] = four-way crossover, intranasal liquid with 7.5% w/v Solutol HS15, 200 μg, single nostril, plasma ELISA, n = 4
[11] = four-way crossover, intravenous bolus (jugular vein), solution without Solutol HS15, 20 μg, plasma ELISA, n = 4
[12] = four-way crossover, subcutaneous injection into flank, solution without Solutol HS15, 20 μg, plasma ELISA, n = 3
[13] = conscious rat, intranasal liquid formulation without enhancer, 100 μg/kg

- AUC(0-inf) [2, 4]: 0.18 ng·h/mL
- AUC(0-t) [2, 4]: 0.178 ng·h/mL
- Tmax [2, 4]: 2 min
- half-life [2, 4]: 75 ± 18.1 min
- Cmax ([2]; female, Mule crossbred, 20 ug, four-way crossover, intravenous bolus (jugular vein), solution without Solutol HS15, 20 μg, plasma ELISA, observed, mean ± SE, n = 4): 1.14 ± 0.198 ng/mL
- Cmax [2, 5]: 0.047 ± 0.021 ng/mL
- Tmax [2, 5]: 10 min
- AUC(0-inf) [2, 6]: 0.0204 ng·h/mL
- AUC(0-t) [2, 6]: 0.0182 ng·h/mL
- half-life [2, 5]: 109 ± 43.7 min
- Cmax [2, 7]: 0.008 ± 0.003 ng/mL
- Tmax [2, 7]: 11 min
- half-life ([2]; female, Mule crossbred, inhaled or intranasal, four-way crossover, intranasal dry powder with Solutol HS15 and gellan gum, nominal 200 μg (estimated 130 ± 15 μg), plasma ELISA, mean ± SE, n = 4): 96 ± 29.8 min
- C0 ([2]; female, Mule crossbred, plasma, 20 ug, intravenous bolus 20 μg, back-extrapolated from the first two concentration values, mean ± SE, read-out: C0 (initial plasma concentration, extrapolation to t = 0)): 2.18 ± 0.696 ng/mL
- F rel ([2]; female, Mule crossbred, plasma, inhaled or intranasal, 200 ug, intranasal liquid with 7.5% w/v Solutol HS15, 200 μg, relative to subcutaneous injection, from AUCINF, dose-corrected, mean ± SE, n = 4, read-out: Frel): 1.4 ± 0.31%
- bioavailability ([2]; female, Mule crossbred, plasma, inhaled or intranasal, 200 μg, intranasal dry powder with Solutol HS15 and gellan gum, from AUCINF, corrected with estimated dose, mean ± SE, n = 4): 0.7 ± 0.03%
- F rel ([2]; female, Mule crossbred, plasma, inhaled or intranasal, 200 μg, intranasal dry powder with Solutol HS15 and gellan gum, relative to subcutaneous injection, from AUCINF, corrected with estimated dose, mean ± SE, n = 4, read-out: Frel): 1 ± 0.12%
- bioavailability ([2]; female, Mule crossbred, plasma, inhaled or intranasal, 200 ug, intranasal liquid with 7.5% w/v Solutol HS15, 200 μg, from AUCINF, dose-corrected, mean ± SE, n = 4): 1.1 ± 0.26%
- F rel ([2]; female, Mule crossbred, plasma, iv, 20 ug, intravenous bolus 20 μg, relative to subcutaneous injection, calculated for n = 3, read-out: Frel, n = 3): 140%
- F rel ([2]; female, Mule crossbred, plasma, iv, 20 ug, intravenous bolus 20 μg, relative to subcutaneous injection, from AUCINF, mean ± SE, n = 4 (average subcutaneous AUCINF used for Sheep 1), read-out: Frel): 156 ± 24%
- bioavailability ([2]; female, Mule crossbred, plasma, sc, 20 ug, subcutaneous injection into flank, 20 μg, from AUCINF, mean ± SE, n = 3): 77 ± 13.7%
- AUC(0-inf) [2, 8]: 0.124 ng·h/mL
- AUC(0-t) [2, 8]: 0.12 ng·h/mL
- Cmax [2, 8]: 0.121 ± 0.047 ng/mL
- Tmax [2, 8]: 12 min
- half-life [2, 8]: 54 ± 8.7 min
- Tmax (median) [2, 9]: 8 min
- t1/2 (median) [2, 9]: 71 min
- Tmax (median) [2, 10]: 10 min
- t1/2 (median) [2, 10]: 77 min
- Tmax (mean) ([2]; four-way crossover, intravenous bolus (jugular vein), solution without Solutol HS15, 20 μg, plasma ELISA, mean ± SE, n = 4): 2 min
- Tmax (median) [2, 11]: 2 min
- t1/2 (median) [2, 11]: 78 min
- Tmax (median) [2, 12]: 10 min
- t1/2 (median) [2, 12]: 47 min
- Frel ([2]; intranasal liquid with 7.5% w/v Solutol HS15, 200 μg, relative to subcutaneous injection, from AUCINF, dose-corrected, mean ± SE, n = 4): 1.4 ± 0.3%
- time by which concentrations had returned to near baseline values ([2]; intranasal liquid with Solutol HS15, 200 μg, post-dose): ≤ 30 min
- time of return to near baseline ([2]; intravenous bolus 20 μg): 30 to 45 min
- Fab range ([2]; subcutaneous injection 20 μg, relative to intravenous, range): 55–108%
SMILES: CC[C@H](C)[C@H](NC(=O)[C@H](CCC(=O)O)NC(=O)[C@H](CO)NC(=O)[C@@H](NC(=O)[C@@H](N)CO)C(C)C)C(=O)N[C@@H](CCC(N)=O)C(=O)N[C@@H](CC(C)C)C(=O)N[C@@H](CCSC)C(=O)N[C@@H](Cc1cnc[nH]1)C(=O)N[C@@H](CC(N)=O)C(=O)N[C@@H](CC(C)C)C(=O)NCC(=O)N[C@@H](CCCCN)C(=O)N[C@@H](Cc1cnc[nH]1)C(=O)N[C@@H](CC(C)C)C(=O)N[C@@H](CC(N)=O)C(=O)N[C@@H](CO)C(=O)N[C@@H](CCSC)C(=O)N[C@@H](CCC(=O)O)C(=O)N[C@@H](CCCN=C(N)N)C(=O)N[C@H](C(=O)N[C@@H](CCC(=O)O)C(=O)N[C@@H](Cc1c[nH]c2ccccc12)C(=O)N[C@@H](CC(C)C)C(=O)N[C@@H](CCCN=C(N)N)C(=O)N[C@@H](CCCCN)C(=O)N[C@@H](CCCCN)C(=O)N[C@@H](CC(C)C)C(=O)N[C@@H](CCC(N)=O)C(=O)N[C@@H](CC(=O)O)C(=O)N[C@H](C(=O)N[C@@H](Cc1cnc[nH]1)C(=O)N[C@@H](CC(N)=O)C(=O)N[C@@H](Cc1ccccc1)C(=O)O)C(C)C)C(C)C [PTH 1-34, PTH 1-34 acetate]
- Cmax [1]: ~0.15 ng/mL
- elimination half-life [1]: approximately 1 h
- relative bioavailability ([3]; conscious rat, intranasal liquid formulation without enhancer (100 μg/kg) relative to subcutaneous injection (80 μg/kg)): 8%
- Cmax [3, 13]: 2 ng/mL
- Tmax [3, 13]: 13 min
- Tmax ([3]; conscious rat, intranasal solution containing Solutol HS15, 100 μg/kg): ~10 min
- relative bioavailability ([3]; rat, intranasal liquid formulation containing Solutol HS15 (100 μg/kg) relative to subcutaneous injection (80 μg/kg)): 78%
- Cmax ([3]; rat, subcutaneous injection, 80 μg/kg PTH 1-34, mean): 14.8 ng/mL
